The experiment deals with T1, IL-17A/A (Homo sapiens, UniProt Q16552).
T1 construct: purchased Genscript Z03228
T1 sequence (Q16552 24-155): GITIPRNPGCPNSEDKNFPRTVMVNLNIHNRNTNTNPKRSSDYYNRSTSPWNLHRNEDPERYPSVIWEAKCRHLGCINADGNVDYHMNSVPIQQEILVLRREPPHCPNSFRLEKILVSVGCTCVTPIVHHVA
In words: IL-17A/A HEK-Blue Cell Assay. Type of experiment: cell-based.

Setting [1] is: HEK-Blue IL-17A reporter cell line, SEAP readout at A630, 20 hours incubation with IL-17A/A, top concentration 10 uM, 1 uM or 0.3 uM, read-out: IL-17A/A inhibition (pIC50) (converted).
Setting [2] is: HEK-Blue IL-17A reporter cell line, SEAP readout at A630, 20 hours incubation with IL-17A/A, top concentration 10 uM, 1 uM or 0.3 uM.

Each structure is given as a SMILES string. Read-outs that look alike come from different tables or passages of the source.

Consider `CCn1nnnc1C(=O)N[C@H](C(=O)Nc1ccc([C@H](C)[C@@H](NC(=O)C(C)(F)F)C(=O)N2CCN(C)[C@H](C)C2)cc1F)[C@H]1CC[C@H](C)CC1` [Compound 605], for which the IC50 under setting [1] is 10 to 100 nM. Take `CCC(=O)N[C@H](Cc1ccc(NC(=O)[C@@H](NC(=O)C(F)(F)c2ccc(=O)n(C)c2)C2CCCCC2)c(F)c1)C(=O)N1CCN(C)CC1` [Compound 713]: under setting [2], the “IL-17A/A inhibition (pIC50)” value was “X2b (compounds were evaluated up to 1 uM and inhibited activity at 1 uM by less than 20%)”. On to `CCc1nonc1C(=O)N[C@H](C(=O)Nc1ccc([C@H](C)[C@@H](NC(C)=O)C(=O)N2CCN(C)[C@@H](C)C2)cc1F)[C@H]1CC[C@H](C)CC1` [Compound 511], for which the “IL-17A/A inhibition (pIC50)” value under setting [2] is on record as “A (compounds having a pIC50 of greater than or equal 8 as A)”.

Turning to `CCc1nonc1C(=O)N[C@H](C(=O)Nc1ccc([C@H](C)[C@@H](NC(=O)CF)C(=O)N2CCN(C)[C@@H](C)C2)cc1F)[C@H]1CC[C@H](C)CC1` [Compound 510], the IC50 lay in the range of 10 to 100 nM. In the case of `CCC(=O)N[C@@H](C(=O)N1C[C@H](C)N(C(C)C)[C@@H](C)C1)[C@@H](C)c1ccc(NC(=O)[C@@H](NC(=O)c2nonc2CC)[C@H]2CC[C@H](C)CC2)c(F)c1` [Compound 449], the “IL-17A/A inhibition (pIC50)” value under setting [2] was “A (compounds having a pIC50 of greater than or equal 8 as A)”.

As to `CCC(=O)N[C@@H](C(=O)N1CCN(C)CC1)[C@@H](C)c1ccc(NC(=O)[C@@H](NC(=O)C(F)(F)c2ccc(OC)nc2)C2CCCCCC2)c(F)c1` [Compound 219], the IC50 under setting [1] was 10 to 100 nM. Same read-out and setting: the figure for `CCC(=O)N[C@@H](C(=O)N1CCSCC1)[C@@H](C)c1ccc(NC(=O)[C@@H](NC(=O)c2ccnn2CC)[C@H]2CC[C@H](C)CC2)c(F)c1` [Compound 371] is 10 to 100 nM.

Turning to `CCC(=O)N[C@H](Cc1ccc(NC(=O)[C@@H](NC(=O)C(F)(F)c2cccc(C#N)c2)C2CCCCC2)c(F)c1)C(=O)N1CCN(C)CC1` [Compound 302], under setting [1], the IC50 is 10 to 100 nM.

`CCC(=O)N[C@H](Cc1ccc(NC(=O)[C@@H](NC(=O)C(F)(F)c2ccc(OC)nc2)[C@H]2CC[C@H](C)CC2)c(F)c1)C(=O)N1CCN(C)CC1` [Compound 216]: the IC50 under setting [1] was 100 to 10000 nM. Regarding `CC(C)n1nccc1C(=O)N[C@H](C(=O)Nc1ccc([C@H](C)[C@@H](NC(=O)c2cnns2)C(=O)N2CCN(C)CC2)cc1F)[C@H]1CC[C@H](C)CC1` [Compound 333], the IC50 under setting [1] is under 10 nM. On the same count and under the same terms, the figure for `CCC(=O)N[C@H](Cc1ccc(NC(=O)[C@@H](NC(=O)C(F)(F)c2ccc(C)cc2)C2CCCCC2)c(F)c1)C(=O)N1CCN(C)CC1` [Compound 210] is 100 to 10000 nM; for `CCn1nccc1C(=O)N[C@H](C(=O)Nc1ccc([C@H](C)[C@@H](NC(=O)c2cc(C)n[nH]2)C(=O)N2CCN(C)CC2)cc1F)C1CCCCC1` [Compound 666] it is 100 to 10000 nM. Still for that read-out and setting: to `CCC(=O)N[C@@H](C(=O)N1CCN(C)CC1)[C@@H](C)c1ccc(NC(=O)C(NC(=O)c2nonc2CC)C2CCc3cc(F)ccc32)c(F)c1` (single isomer, unassigned) [Compound 569] belongs 100 to 10000 nM.

With `CCC(=O)N[C@@H](C(=O)N1CCC(C)(O)CC1)[C@@H](C)c1ccc(NC(=O)[C@@H](NC(=O)c2ccnn2CC)C2CCCCCC2)c(F)c1` [Compound 350], under setting [1], the IC50 is under 10 nM.

Regarding `CCn1nccc1C(=O)N[C@H](C(=O)Nc1ccc([C@H](C)[C@@H](NC(=O)c2ccn(C)n2)C(=O)N2CCN(C)CC2)cc1F)C1CCCCC1` [Compound 744], under setting [2], the “IL-17A/A inhibition (pIC50)” value is “X2a (compounds were evaluated up to 1 uM and did not inhibit activity by >80%, however they showed some activity at 1 uM (less than 80% and more than 20%))”.

For `CCC(=O)N[C@@H](C(=O)N1CCNC2(CC2)C1)[C@@H](C)c1ccc(NC(=O)[C@@H](NC(=O)c2nonc2CC)[C@H]2CC[C@H](C)CC2)c(F)c1` [Compound 444], under setting [1], the IC50 is 10 to 100 nM. Still for that read-out and setting: the figure for `CCc1ccoc1C(=O)N[C@H](C(=O)Nc1ccc([C@H](C)[C@@H](NC(=O)c2cnns2)C(=O)N2CCN(C)CC2)cc1F)[C@H]1CC[C@H](C)CC1` [Compound 409] is 10 to 100 nM; for `COc1ccc(C(F)(F)C(=O)N[C@H](C(=O)Nc2ccc([C@H](C)[C@@H](NC(=O)c3cnns3)C(=O)N3CCN(C)CC3)cc2F)[C@H]2CC[C@H](C)CC2)cn1` [Compound 620] it is under 10 nM.

On to `CCC(=O)N[C@@H](C(=O)N1CCN(C(C)C)CC1)[C@@H](C)c1ccc(NC(=O)[C@@H](NC(=O)c2ccnn2CC)C2CCCCC2)c(F)c1` [Compound 362], for which, under setting [1], the IC50 was 10 to 100 nM. Same read-out and setting: to `CCC(=O)N[C@@H](C(=O)N1CCN(C)CC1)[C@@H](C)c1ccc(NC(=O)[C@@H](NC(=O)C(F)(F)C2CCN(C(C)=O)CC2)C2CCCCC2)c(F)c1` [Compound 653] belongs 100 to 10000 nM; to `CCC(=O)N[C@@H](C(=O)N1CCN(C)CC1)[C@@H](C)c1ccc(NC(=O)[C@@H](NC(=O)c2occc2CC)[C@H]2CC[C@H](C)CC2)c(F)c1` [Compound 524], 10 to 100 nM.

Take `CCC(=O)N[C@@H](C(=O)N1CCN(C)CC1)[C@@H](C)c1ccc(NC(=O)[C@@H](NC(=O)C(F)(F)C2CCN(CCO)CC2)C2CCCCC2)c(F)c1` [Compound 735]: the “IL-17A/A inhibition (pIC50)” value under setting [2] was “X2a (compounds were evaluated up to 1 uM and did not inhibit activity by >80%, however they showed some activity at 1 uM (less than 80% and more than 20%))”.

As for `CCc1nonc1C(=O)N[C@H](C(=O)Nc1ccc([C@H](C)[C@@H](NC(=O)N(C)C2CC2)C(=O)N2CCN(C)[C@H](C)C2)cc1F)[C@H]1CC[C@H](C)CC1` [Compound 508], the IC50 under setting [1] is under 10 nM. Still for that read-out and setting: to `CCC(=O)N[C@H](Cc1ccc(NC(=O)[C@@H](NC(=O)C(F)(F)c2ccc(=O)[nH]c2)C2CCCCC2)c(F)c1)C(=O)N1CCN(C)CC1` [Compound 217] belongs 100 to 10000 nM. The same measure, in the same setting: the figure for `CCC(=O)N[C@@H](C(=O)N1CCN(Cc2ccccc2)CC1)[C@@H](C)c1ccc(NC(=O)[C@@H](NC(=O)C(F)(F)c2cncc(OC)c2)[C@H]2CC[C@H](C)CC2)c(F)c1` [Compound 532] is 10 to 100 nM; for `CCn1nccc1C(=O)N[C@H](C(=O)Nc1ccc([C@H](C)[C@@H](NC(=O)NC2CC2)C(=O)N2CCN(C)CC2)cc1F)C1CCCCCC1` [Compound 338] it is under 10 nM; for `CCC(=O)N[C@@H](C(=O)N1CCN(C)CC1)[C@@H](C)c1ccc(NC(=O)[C@@H](NC(=O)C(F)(F)c2cccc(OC)c2)C2CCCCC2)c(F)c1` [Compound 243] it is 10 to 100 nM. Still for that read-out and setting: the figure for `CCc1nonc1C(=O)N[C@H](C(=O)Nc1ccc([C@H](C)C(NC(=O)C(C)F)C(=O)N2CCN(C)[C@H](C)C2)cc1F)[C@H]1CC[C@H](C)CC1` (single isomer, unassigned) [Compound 598] is 10 to 100 nM; for `CCC(=O)N[C@@H](C(=O)N1CCN(C)CC1)[C@@H](C)c1ccc(NC(=O)[C@@H](NC(=O)C(F)(F)c2cccc(NS(C)(=O)=O)c2)C2CCCCC2)c(F)c1` [Compound 251] it is 10 to 100 nM. As to `CCn1nccc1C(=O)N[C@H](C(=O)Nc1ccc(C[C@@H](NC(=O)c2ccnn2C2CCN(C)CC2)C(=O)N2CCN(C)CC2)cc1F)C1CCCCC1` [Compound 321], under setting [1], the IC50 is 10 to 100 nM. For `CCc1nocc1C(=O)N[C@H](C(=O)Nc1ccc([C@H](C)[C@@H](NC(=O)c2cnns2)C(=O)N2CCN(C)CC2)cc1F)[C@H]1CC[C@H](C)CC1` [Compound 414], the IC50 under setting [1] was under 10 nM.

These data come from patent US12421212B2, “Substituted benzenecarboxamides as IL-17A modulators” (DiCE Alpha, Inc., priority 2019, dated 2025).
